# Experimental data published in patent publication US6218112A, “Optimization of gene delivery and gene delivery system” (Cobra Therapeutics Limited, priority 1997, dated 2001).
# * marks the point of attachment. Acm = CC(=O)NC*
# Experiments:
# [1] = system: plasmid nucleic acid pRSVLuc; assay: Surface plasmon resonance (BIAcore) binding kinetics of peptides/conjugates to immobilized biotinylated plasmid DNA; conditions: for ka: apparent rate constant for association; for ka / kd: SPR, PBS, 25° C.; for kd: apparent rate constant for dissociation
# Experimental: In the examples described below, SPR was detected using the BIAcore system. This machine contained an SPR detector and an integrated microfluidic cartridge which is engineered such that an analyte solution (cationic peptide) is continuously passed over the sensor chip. The sensor chip consists of a glass plate coated with a thin film of gold covered in a layer of carboyxymethyl dextran. The chip used has a dextran layer to which streptavidin is covalently attached. The chip is prepared for use by adding biotinylated nucleic acid which will be bound to the chip via the streptavidin-biotin interaction, and the same chip is used in a series of experiments.
# As material binds to the immobilized nucleic acid molecule on the sensor chip, the SPR angle of plane polarized light shining on the surface of the chip is monitored by the detector. Changes in angle are defined as resonance units (RU) and data are collected every second. Background effects are detected and automatically subtracted by the use of a control flow cell in line with the nucleic acid flow cell.
# A typical sensorgram has three phases: an association phase, an equilibrium phase and a dissociation phase (see FIG. 1). The rise in signal occurs as more peptide binds to the immobilized plasmid DNA until equilibrium conditions are reached. The height of the peak is directly proportional to the mass of peptide bound. If the flow continues with buffer containing no peptide, peptide begins to dissociate from the complex and the resonance signal is reduced. The sensorgram can be used to compute apparent rate constants for each of the three individual processes.
# (1) dC/dt=ka [PF ] [Pmax -PB ]-kd [PB ]
# Measurement of Binding Kinetics by Surface Plasmon Resonance
# A 6 kilobase (kb) plasmid DNA (pRSVLuc) was biotinylated using photoactivatable biotin (Pierce and Warriner) as per manufacturer's instructions.
# A sensor chip with immobilized streptavidin (SA5) was conditioned following manufacturer's instructions, i.e., three one-minute injections of 1 M NaCl: 50 mM NaOH followed by one 1 min injection of 0.5% SDS. Flow rate on the BlAcore sensing device was 20 μl per min, running buffer was phosphate buffered saline (PBS). Flow path was flow cells 1 and 2.
# The flow path was switched to flow cell 2 only and the flow rate was reduced to 10 μl per minute. Biotinylated plasmid at a concentration of […] in 0.5M NaCl was injected for 3 mins.
# Phosphate buffered saline was used as running buffer at a flow rate of 20 μl per minute. The flow path was over flow cells 1 and 2. Flow cell 1 was used as a reference cell. The experiments were carried out at a temperature of 25° C.
# Peptides were injected at various concentrations for three minutes. The injection was followed by a 5 min dissociation phase before the injection port was washed. The sensor chip was regenerated by the injection of 2M NaCl for 1 min. If necessary, this injection was repeated to bring the response back down to baseline before the next peptide sample was injected.
# The data was analysed using the methods described in the handbook (BIAevaluation 2.1. Software Handbook, Pharmacia Biosensor AB, Uppsala, Sweden).
# Essentially the plots were evaluated as follows: The dissociation constant, kd, was determined first. A curve or family of curves (same NBC at different concentrations) were plotted as response (Y) versus time as Ln (Yo/Y) versus time. In the area where the Ln(Yo/Y) curve was linear, a fit of the default dissociation model [AB]=[A]+[B] was made. The association constant, ka, was then calculated by fitting the related association model on that part of the association curve where a plot of In(abs(dY/dt) versus time was linear. KD were approximated by dividing the calculated kd with the calculated ka.
# Jurkat cell line = assay: In vitro transfection with pRSVLuc (luciferase) condensed on peptides; format: cell-based; conditions: peptide 2 μg/μg plasmid DNA
# Experimental: After incubation the cells are lysed and are assayed for gene expression. In the case of the luciferase reporter gene, luciferin and ATP are added to lysed cells and the light emitted is measured with a luminometer (see deWet et al., supra).
# Cell lines such as Jurkat and K562 grow in suspension and can be transfected and the level of transgene expression (luciferase activity) determined b) the following method. Cells are harvested on the day of assay by centrifugation at 1200 rpm for 5 mins at room temperature. The cell pellet is resuspended in phosphate buffered saline and re-centrifuged. This operation is performed twice. […] The cells are then aliquoted into tubes and 0.75 ml of RPMI medium added, followed by 0.04-0.08 ml of 100 mM Chloroquine and finally 0.25 ml of DNA-complex solution. The transfection is then allowed to proceed by incubating the cells at 37° C. for 4 h. After this time the cells are harvested by centrifugation at 2000 rpm. The cells are then suspended in 1 ml of RPMI medium and re-centrifuged. Finally the cells are suspended in 0.5 ml RPMI medium containing 10% foetal bovine serum. Each 0.5 ml of transfected cell suspension is transferred to a well of a 12 well plastic culture plate containing 1.5 ml of RPMI 10% FBS. The original transfection tube is rinsed with a further 1 ml of medium and the wash transferred to the culture dish making a final volume of 3 ml. The culture plate is then incubated at 37° C. for 24-90 h in an atmosphere of 5% CO2. The contents of each well in the culture dish are transferred to centrifuge tubes and the cells collected by centrifugation at 13000 rpm. The pellet is resuspended in 0.12 ml of Lysis Buffer (100 mM sodium phosphate, pH 7.8; 8 mM magnesium chloride, 1 mM EDTA; 1% Triton X-100 and 15% glycerol) and agitated with a pipette. The lysate is centrifuged at 13000 rpm for 1 min and the supernatant collected. 80 μl of the supernatant are transferred to a luminometer tube. The luciferase activity is then assayed using a Berthold Lumat L9501 luminometer. The assay buffer used is Lysis Buffer containing 10 mM Luciferin and 100 mM ATP. Light produced by the luciferase is integrated over 4s and is described as relative light units (RLU). The data are converted to RLU/ml of lysate, RLU/cell or RLU/mg protein (protein concentration of the lysate having been determined in this case by the BioRAD Lowry assay.
# In order to compare the relative efficiency of transfection of complexes composed of different NBC condensation peptides or poly-L-lysine, pRSVLuc DNA at a concentration of 100 μg/ml was condensed using peptide at a ratio of 2 μg/μg plasmid DNA as described herein with the following deviation: prior to addition to the cells (Jurkat cell line) the complexes were diluted to 20 μg/ml with 10% PEG 10 000; 37 mM sodium chloride; 25 mM sodium phosphate, pH 7.4. The cells were assayed for luciferase after 24 h.
# [2] = system: KLN-205 squamous epithelial syngenic tumour cells; assay: In vivo transfection of KLN-205 tumours in DBA2 mice by local injection of peptide/plasmid complexes (nitroreductase immunostaining); design: species or system mouse; conditions: 0.5 μg peptide/μg DNA, intratumoural injection
# Experimental: A representative in via cell transfection system is transfection of tumor cells using a murine carcinoma model.
# The murine carcinoma model DBA2 containing the squamous epithelial syngenic tumour cell line KLN-205 was prepared as described in the Examples. A transfecting complex was prepared using a solution of plasmid DNA encoding a reporter gene or, for example, nitroreductase and a selected NBC peptide 0.5 μg peptide/μg DNA, as described herein. Where desired, a conjugate peptide was added to the transfecting complex, at a concentration of 0.1-0.3 μg […] peptide/μg DNA.
# Transfection efficiency may be determined in a number of ways, including assessing the effect of the reporter gene on the target tissue, or by quantitating the gene product. Below, tissues samples were obtained and nitroreductase gene expression was ascertained via staining of tissue sections.
# The ability to transfect tumor cells in vivo in mice was tested using plasmid nucleic acid carrying the nitroreductase reporter gene condensed on each of the following peptides: NBC15, NBC8, NBC9, NBC11, NBC7.
# DBA2--male mice, aged 5-10 weeks were injected subcutaneously in each flank with a squamous epithelial syngenic tumour cell line KLN-205. The cell line was grown up in 175 ml T-flasks in standard EMEM medium containing 10% foetal calf serum. When the cells reached a density of 4×10^6 they were suspended by a standard trypsinization technique, washed in PBS and diluted to a final concentration of […].
# The anaesthetic was Enflurane (Alynane; Anaquest, Ltd., Windlesham, Surrey UK): Ketamine (10% Ketaset, Willows Francis Veterinary, Cramley, West Sussex, UK); Rompun (2%, Bayer UK, Ltd., Suffolk, UK). For 10 ml anaesthetic mixture: 8.5 ml PBS; 1 ml Ketamine; 0.5 ml Rompun. Each animal was injected intra-peritoneally with 200 μl/animal using 1 ml syringe with 25 gauge needle. Once anaesthetized, the tumour is manipulated between the fingers lifting it slightly away from the animal's body and at the same time apply minimum pressure to the tumour. Using a 0.5 ml insulin needle the formulated delivery vehicle (a plasmid containing the E. coli nitroreductase gene condensed on a peptide at a ratio of 0.5 μg peptide/μg DNA) to be injected is taken up and the tumour is injected horizontally trying to avoid any visible blood vessels and necrotic or abnormal tissue. Daily monitoring is continued until the experiment is terminated.
# 7μ sections of frozen tumour tissue are prepared using standard methods and a Cryostat and air dried. Sections are fixed with freshly prepared 4% PFA/PBS for 30 mins at room temperature and then washed twice with 0.01% Tween-20/PBS 5 mins each wash. Sections are then immersed in 0.25% hydrogen peroxide/PBS, at room temperature (20C.) for 30 mins, and then washed three times in 0.01% Tween 20/PBS for 5 mins each wash. Sections are then permeabilised by treatment with ice cold 0.1 % TRITON X-100 for 5 mins, followed by a further two washes in 0.01% Tween-20/PBS 5mins each wash. The sections are then blocked with 5% NGS/PBS 60mins at room temperature in a wetbox. After decanting the blocking solution, 0.5 ml diluted antiserum/slide (1:400 in 2.5% NGS) is added and the sections incubated for 60 mins at room temperature. Slides are then washed three times in 0.01% Tween-20/PBS 5 mins each wash. Secondary antibody (0.5 ml) from ABC Elite Vector stain kit is added as follows and incubated 30 mins at room temperature in a wetbox.
# The tumour is a murine syngenic squamous carcinoma produced by subcutaneous injection of KLN205 cells. When the tumours were approximately 4 mm in diameter they were injected with 20 μl of plasmid DNA formulated with the NBC15 peptide. After 48 h the tumours were excised and sectioned by standard histological techniques and immunostained for expression of the transgene (E. coli nitroreductase). […] In this case the tumours were injected with the same plasmid formulated in 0.5 μg NBC9 peptide/μg DNA.
Substance,ka [1] [M⁻¹ s⁻¹],kd [1] [s⁻¹],transfection compared with polydisperse poly-L-lysine (Jurkat cell line; luciferase),ranking by numbers of transfected tumor cells (most to least efficient) [2],"number of transfected tumor cells / level of transfection ([2]; 48 h, nitroreductase immunostaining)",association reaction ([1]; shape of association kinetics),"rank in order of relative transfection efficiency (most to least efficient) (Jurkat cell line; luciferase after 24 h, FIG. 7)"
H-TKKKKKKKKKKKKKKKKKKC-OH [NBC14],211000,0.00075,significantly better transfection agents than the polydisperse poly-L-lysine,–,–,–,–
NH2-TKKSPKKAKKPAAKKSPKKAKKPAAKKSPKKAKKPAAC(Acm)-COOH (H-TKKSPKKAKKPAAKKSPKKAKKPAAKKSPKKAKKPAAC(Acm)-OH; SMILES CC(=O)NCSC[C@H](NC(=O)[C@H](C)NC(=O)[C@H](C)NC(=O)[C@@H]1CCCN1C(=O)[C@H](CCCCN)NC(=O)[C@H](CCCCN)NC(=O)[C@H](C)NC(=O)[C@H](CCCCN)NC(=O)[C@H](CCCCN)NC(=O)[C@@H]1CCCN1C(=O)[C@H](CO)NC(=O)[C@H](CCCCN)NC(=O)[C@H](CCCCN)NC(=O)[C@H](C)NC(=O)[C@H](C)NC(=O)[C@@H]1CCCN1C(=O)[C@H](CCCCN)NC(=O)[C@H](CCCCN)NC(=O)[C@H](C)NC(=O)[C@H](CCCCN)NC(=O)[C@H](CCCCN)NC(=O)[C@@H]1CCCN1C(=O)[C@H](CO)NC(=O)[C@H](CCCCN)NC(=O)[C@H](CCCCN)NC(=O)[C@H](C)NC(=O)[C@H](C)NC(=O)[C@@H]1CCCN1C(=O)[C@H](CCCCN)NC(=O)[C@H](CCCCN)NC(=O)[C@H](C)NC(=O)[C@H](CCCCN)NC(=O)[C@H](CCCCN)NC(=O)[C@@H]1CCCN1C(=O)[C@H](CO)NC(=O)[C@H](CCCCN)NC(=O)[C@H](CCCCN)NC(=O)[C@@H](N)[C@@H](C)O)C(=O)O) [NBC9],97800,0.00293,–,"NBC15>NBC8, NBC9, NBC11>NBC7>>>poly-lysine",Although transfection is evident the level of transfection is noticeably lower,–,–
H-TRPAWRRAKRRAARRCGVSARRAARRAWRRE-OH [NBC7],3670,0.000133,–,"NBC15>NBC8, NBC9, NBC11>NBC7>>>poly-lysine",–,clear biphasic kinetics,–
NH2-KKSPKKAKKPAAKKSPKKAKKPAAKKSPKKAKKPAYC(Acm)-COOH (H-KKSPKKAKKPAAKKSPKKAKKPAAKKSPKKAKKPAYC(Acm)-OH; SMILES CC(=O)NCSC[C@H](NC(=O)[C@H](Cc1ccc(O)cc1)NC(=O)[C@H](C)NC(=O)[C@@H]1CCCN1C(=O)[C@H](CCCCN)NC(=O)[C@H](CCCCN)NC(=O)[C@H](C)NC(=O)[C@H](CCCCN)NC(=O)[C@H](CCCCN)NC(=O)[C@@H]1CCCN1C(=O)[C@H](CO)NC(=O)[C@H](CCCCN)NC(=O)[C@H](CCCCN)NC(=O)[C@H](C)NC(=O)[C@H](C)NC(=O)[C@@H]1CCCN1C(=O)[C@H](CCCCN)NC(=O)[C@H](CCCCN)NC(=O)[C@H](C)NC(=O)[C@H](CCCCN)NC(=O)[C@H](CCCCN)NC(=O)[C@@H]1CCCN1C(=O)[C@H](CO)NC(=O)[C@H](CCCCN)NC(=O)[C@H](CCCCN)NC(=O)[C@H](C)NC(=O)[C@H](C)NC(=O)[C@@H]1CCCN1C(=O)[C@H](CCCCN)NC(=O)[C@H](CCCCN)NC(=O)[C@H](C)NC(=O)[C@H](CCCCN)NC(=O)[C@H](CCCCN)NC(=O)[C@@H]1CCCN1C(=O)[C@H](CO)NC(=O)[C@H](CCCCN)NC(=O)[C@@H](N)CCCCN)C(=O)O) [NBC13],–,–,–,–,–,–,NBC11>NBC13>NBC8>>NBC15>>>polylysine
